Measured values taken from patent US6110716A, “HIV integrase inhibitors” (Merck & Co., Inc., priority 1998, dated 2000).

Experiments:
[1] = target: T1, HIV-1 integrase (Human immunodeficiency virus type 1 group M subtype B, UniProt P04585); test: HIV Integrase Substrate Cleavage (trimming of the 3' end of HIV long terminal repeat terminus by HIV-1 integrase); format: biochemical; conditions: inhibition of HIV integrase substrate cleavage; inhibitor 0.75 to 100 μM
T1 construct: HIV long terminal repeat terminus by HIV-1 integrase
Procedure: HIV Integrase Substrate Cleavage
An assay for trimming of the 3' and of HIV long terminal repeat terminus by HIV-1 integrase was conducted according to LaFemina, R. L. et al., J. Virol 10, 5624 (1991), herein incorporated by reference for these purposes. To assay inhibition of HIV integrase substrate cleavage, the reaction was conducted with inhibitor having various concentrations in the range of 0.75 to 100 μM.

[2] = target: HIV integrase (Human immunodeficiency virus type 1 group M subtype B, UniProt P04585); test: Strand Transfer Assay for HIV Integrase (microtiter assay for ligation of processed donor (HIV) DNA to unspecific, nicked host DNA); format: biochemical; conditions: inhibition of strand transfer by HIV integrase; inhibitor 0.75 to 100 μM
Procedure: Strand Transfer Assay for HIV Integrase
A microtiter assay for ligation of processed donor (HIV) DNA to unspecific, nicked host DNA was conducted according to Hazuda, D. J. et al., Nucl. Acids, Res. 22, 1121 (1994), herein incorporated by reference for these purposes. To assay inhibition of such strand transfer by HIV integrase, the reaction was conducted with inhibition having various concentrations in the range of 0.75 to 100 μM. Representative results follow.

SMILES	IC50 [1]	IC50 [2]
CC(=O)Oc1cc(OC(C)=O)c2c(OC(C)=O)c3c(cc2c1-c1c(OC(C)=O)cc(OC(C)=O)c2c(OC(C)=O)c4c(cc12)OC(C)C(C)C4=O)OC(C)C(C)C3=O (stereo not drawn) [E]	50 µM	–
COc1cc(OC)c2c(OC)c3c(cc2c1-c1c(OC)cc(OC)c2c(OC)c4c(cc12)OC(C)C(C)C4=O)OC(C)C(C)C3=O (stereo not drawn) [Compound G]	60 µM	–
CC1Oc2cc3c(-c4c(O)cc(O)c5c(O)c6c(cc45)OC(C)C(C)C6=O)c(O)cc(O)c3c(O)c2C(=O)C1C (stereo not drawn) [Compound A]	2 µM	12 µM
Cc1oc2cc3c(-c4c(O)cc(O)c5c(O)c6c(cc45)O[C@@H](C)[C@@H](C)C6=O)c(O)cc(O)c3c(O)c2c(=O)c1C (relative stereo) [Compound D]	1 µM	4 µM
CC1Oc2cc3c(-c4c(O)cc(O)c5c(O)c6c(cc45)OC(C)C(C)C6=O)c(O)cc(O)c3c(O)c2OC(=O)C1C (single isomer, unassigned) [Compound C]	3 µM	9 µM
COc1cc(O)c2c(OC)c3c(cc2c1-c1c(OC)cc(OC)c2c(OC)c4c(cc12)OC(C)C(C)C4=O)OC(C)C(C)C3=O (stereo not drawn) [Compound F]	40 µM	–
